Assay results reported in patent US20240189240A1, “PHARMACEUTICAL COMPOSITIONS COMPRISING ZOLMITRIPTAN” (MapLight Therapeutics, Inc., priority 2021, published 2024).

Experiments:
[1] = CSF levels after i.p. dosing in CD-1 mice; settings: zolmitriptan 3 and 10 mg/kg i.p., male CD-1 mice
[2] = CSF levels after i.p. dosing in c57/Bl6 mice; format: in vivo, mouse
[3] = tested on: CD-1 mice; assay: Resident-Intruder (RI) assay of aggression; format: in vivo, mouse; settings: 10 mg/kg
Procedure: Correspondingly, the RI assay has been used preclinically to study the effect of drugs on rodent aggression (Miczek et al., 2001). The RI assay typically relies on the interpretation and scoring of offensive (resident animal) behavior patterns and may also include analysis of defensive (intruder animal) behavior patterns as well. […] Attack time was measured over a 5 min period as a cross over design.

[4] = biological target: 5-HT1b receptor (Homo sapiens, UniProt P28222); assay: 5-HT1b receptor occupancy and efficacy model, human dose estimate
Procedure: Specifically, 5-HT1b receptor occupancy and efficacy models measured potency of zolmitriptan and NMDZ at the 5-HT1b receptor and the ratio of zolmitriptan: NDMZ in human CSF. The 5-HT1b receptor efficacy model was used to predict the level of 5-HT1b activation (i.e., efficacy) by both zolmitriptan and NDMZ based on the concentration of zolmitriptan in the CSF. From this target zolmitriptan dose ranges required to achieve an effective CSF exposures in humans were calculated.
Using classical receptor theory, the receptor occupancy when considering two ligands (i.e., entities) can be predicted using the following relationship:
Total % occupancy=(% occupancy by A)+{[100%−(% occupancy by A)]×(% occupancy by B)} when considering a fixed concentration of both A and B.
Total % Efficacy={[Zolmitriptan]/([Zolmitriptan]+Ki,Z)}+(100−{[Zolmitriptan]/([Zolmitriptan]+Ki,Z)}×{[NDMZ]/([NDMZ]+Ki,N)}

[5] = biological target: T1, rat recombinant 5-HT1b (r5-HT1b) receptors (Rattus norvegicus, UniProt P28564); assay: SPA-based 35S-GTPγS binding assay (functional); format: biochemical
T1 construct: expressed in transfected cells
Procedure: In this study in vitro binding assays were conducted to measure the affinity of zolmitriptan and its active metabolite NDMZ to rat and human 5-HT1B receptors.
Zolmitriptan was tested in a SPA-based 35S-GTPγS binding assay in cells expressing human 5-HT1b (h5-HT1b) receptors or rat recombinant 5-HT1b (r5-HT1b) receptors at ten concentrations in duplicate.

Sequence of 5-HT1b receptor (P28222 whole entry): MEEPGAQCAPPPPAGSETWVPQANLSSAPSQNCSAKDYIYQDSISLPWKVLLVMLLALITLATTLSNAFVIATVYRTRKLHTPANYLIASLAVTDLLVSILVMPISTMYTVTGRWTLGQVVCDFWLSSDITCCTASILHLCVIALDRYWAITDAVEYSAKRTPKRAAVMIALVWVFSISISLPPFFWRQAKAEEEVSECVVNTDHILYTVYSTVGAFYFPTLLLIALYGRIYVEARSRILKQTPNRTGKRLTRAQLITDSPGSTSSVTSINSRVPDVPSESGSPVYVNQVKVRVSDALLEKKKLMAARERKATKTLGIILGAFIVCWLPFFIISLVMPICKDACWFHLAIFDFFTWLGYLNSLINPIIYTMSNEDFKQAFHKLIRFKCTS
T1 sequence (P28564 whole entry): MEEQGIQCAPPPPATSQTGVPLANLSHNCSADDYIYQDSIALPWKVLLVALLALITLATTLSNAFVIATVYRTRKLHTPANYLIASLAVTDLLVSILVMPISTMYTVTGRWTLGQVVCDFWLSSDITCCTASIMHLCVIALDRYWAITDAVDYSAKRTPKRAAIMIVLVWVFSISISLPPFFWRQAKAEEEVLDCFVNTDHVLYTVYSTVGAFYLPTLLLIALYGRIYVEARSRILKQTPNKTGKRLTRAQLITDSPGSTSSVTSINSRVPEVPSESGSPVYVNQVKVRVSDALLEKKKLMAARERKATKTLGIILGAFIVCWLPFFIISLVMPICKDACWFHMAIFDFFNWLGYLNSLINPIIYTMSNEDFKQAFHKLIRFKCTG

CNCCc1c[nH]c2ccc(C[C@H]3COC(=O)N3)cc12 [NDMZ, N-desmethyl zolmitriptan]
metabolite level after zolmitriptan dosing [1]: below the lower limit of quantification | metabolite level in CSF after zolmitriptan dosing ([2]; zolmitriptan 10 mg/kg i.p., male c57/Bl6 mice): below the lower limit of quantification

CN(C)CCc1c[nH]c2ccc(C[C@H]3COC(=O)N3)cc12 [Zolmitriptan, (4S)-4-[[3-[2-(dimethylamino)ethyl]-1H-indol-5-yl]methyl]-1,3-oxazolidin-2-one]
CSF Cmax ([2]; 10 mg/Kg i.p., c57/Bl6 ASD mouse model): 62 nM | reduction in attack time compared to risperidone (0.03 mg/kg) and vehicle control [3]: greater reduction in attack time | CSF levels required for a therapeutic effect in humans, lower than in mice ([4]; based on human vs rat 5-HT1b EC50): about 8.3 fold | concentration for 50% Total Efficacy relative to the zolmitriptan EC50 ([4]; combined effect of the metabolite): 3.7 fold | EC50 ([4]; read-out: concentration of zolmitriptan in human CSF predicted to induce 50% efficacy (EC50) of 5-HT1b by zolmitriptan and NDMZ, model, zolmitriptan: NDMZ 1.0:0.75): 1.09 nM | activity in GTPgS at CSF Cmax (EC36) ([5]; CSF Cmax 18.8 nM, CD-1 mice, 3 mg/Kg i.p.): 36% | activity in GTPgS at CSF Cmax (EC65) ([5]; CSF Cmax 62 nM, c57/Bl6 mice, 10 mg/Kg i.p.): 65%
